Series [1] concerns K562 (human chronic myelogenous leukemia cell line). Put plainly: tumor cell proliferation, MTT or CCK8 assay, 72 h incubation. The conditions noted are these: K562, 72 h, read-out: IC50 on tumor cell proliferation, K562. The series is classed as cell-based. The procedure:
(§1) The heterocyclic alkynyl benzene compounds at different concentrations (1×10^−10˜1×10^−5M) were incubated for 72 hours individually applied to 6 cell lines K562 (human CML cell line), MOLT-4 (human ALL cell line), U937 (human CML cell line), MEG-01 (human CML cell line), L78 (human lung cancer cell line), Ba/F3-T315I (mice Pro-B cells transformed with Bcr-AblT315I and STI57′-resistant cell line). After incubation for 72 hrs, cell proliferation was then determined by MTT assay or CCK8 assay, and 4 hr incubation is further conducted, the absorbance at 570 nm (CCK8, 450 nm, 650 nm) was measured using enzyme Microplate Reader. […] Based on the inhibition potency of the heterocyclic alkynyl benzene compounds on the cell proliferation, IC50 values were calculated and summarized in the Table 1 and Table 2 (The compounds used were synthesized by Examples 1-40, and the compounds are marked with Drug No. series in Table 1).

Series [2] concerns MOLT-4 (Human acute lymphoblastic leukemia cell line). Described as above. Particulars: MOLT-4, 72 h, read-out: IC50 on tumor cell proliferation, MOLT-4. The series is classed as cell-based. The method, then: as §1
The test system of series [3] is K562R cells (imatinib-resistant cell line). The series is described as above. The series is classed as cell-based. Particulars: Homo sapiens, K-562R, read-out: IC50 on tumor cell proliferation, K562R cells.
For series [4], the target named is BAF3-T315I cells (Ba/F3 cell line stably expressing BCR/ABL T315I) (Homo sapiens, UniProt P00519, T315I, cells depend on it). Described as above. The series is classed as cell-based, mice. The procedure:
The heterocyclic alkynyl benzene compounds at different concentrations (1×10^−10˜1×10^−5M) were incubated for 72 hours individually applied to 6 cell lines K562 (human CML cell line), MOLT-4 (human ALL cell line), U937 (human CML cell line), MEG-01 (human CML cell line), L78 (human lung cancer cell line), Ba/F3-T315I (mice Pro-B cells transformed with Bcr-AblT315I and STI57′-resistant cell line). After incubation for 72 hrs, cell proliferation was then determined by MTT assay or CCK8 assay, and 4 hr incubation is further conducted, the absorbance at 570 nm (CCK8, 450 nm, 650 nm) was measured using enzyme Microplate Reader.

Series [5] in a line: Pharmacokinetics and bioavailability in rats. The conditions noted are these: SD rats; for pharmacokinetics parameters, overall judgement: corresponding pharmaceutical acceptable salt forms; for AUC(0-inf) / half-life / Cmax / Tmax / bioavailability: both sexes, Sprague-Dawley, rat, plasma; for Cmax: read-out: Cmax; for Tmax: read-out: Tmax; for bioavailability: read-out: BA(% Oral bioavailability). The series is classed as in vivo. The procedure:
Pharmacokinetics and bioavailability in rats. […] The blood samples were collected at the proper time points after administration, add heparin-anticoagulant, and the supernatants of the blood samples were collected (3000 rpm, 10 min) and stored at -20° C. for HPLC-MS analysis. After protein-precipitation procedure with acetonitrile, supernatants were collected after 3000 rpm, 10 min for analysis with HPLC-MS. The data were analyzed with software DAS2.0 to separately acquire the parameters of compartment models and non-compartment models. The bioavailability was calculated according to AUC data.

The mark [6] stands for this setting: Ba/F3 expressing BCR/ABL T315I, 72 h, Table 1; read-out: IC50 on tumor cell proliferation, BAF3-T315I cells.
The mark [7] stands for this setting: read-out: IC50 on tumor cell proliferation, BAF3-T315I cells; Ba/F3 expressing BCR/ABL T315I, 72 h, Table 1.
The mark [8] stands for this setting: po, calculated according to AUC data, PO vs IV.

The structures appear in SMILES notation. Structures can show the parent of a compound that is named as a salt. Where two headings read alike, the source gives them in different places. Bounds are passed on as bounds.

Consider `Cc1ccc(C(=O)Nc2cc(-n3ccnc3)cc(C(F)(F)F)c2)cc1C#Cc1cnc2[nH]ncc2c1` [D831, N-(3-(1H-imidazol-1-yl)-5-(trifluoromethyl)phenyl)-3-(2-(1H-pyrazolo[3,4-b]pyridin-5-yl)ethynyl)-4-methylbenzamide], for which the IC50 in series [1] (MTT or CCK8, nM) came out at 0.466 nM; in series [2] (MTT or CCK8, nM), 7130 nM; in series [3] (imatinib-resistant K562R) it was 54 nM. In series [4] (setting [6]), the GI50 is 36.8 nM. In series [5], the “pharmacokinetics parameters, overall judgement” value (shortened to “pharmacokinetics parameters”) is “adequate pharmacokinetics parameters”.

As for `Cc1cn(-c2cc(NC(=O)c3ccc(C)c(C#Cc4cnc5[nH]ccc5c4)c3)cc(C(F)(F)F)c2)cn1` [D832, 3-(2-(1H-pyrrolo[2,3-b]pyridin-5-yl)ethynyl)-4-methyl-N-(3-(4-methyl-1H-imidazol-1-yl)-5-(trifluoromethyl)phenyl)benzamide], the IC50 in series [1] (MTT or CCK8, nM) was 7.27 nM; in series [2] (MTT or CCK8, nM), > 100 nM; in series [3] (imatinib-resistant K562R), 200 nM. The GI50 in series [4] (setting [6]) stood at 21.8 nM.

As for `Cc1ccc(C(=O)Nc2ccc(CN3CCN(C)CC3)c(C(F)(F)F)c2)cc1C#Cc1cnc(NC2CC2)nc1` [D825, 3-(2-(2-(cyclopropylamino)pyrimidin-5-yl)ethynyl)-4-methyl-N-(4-((4-methylpiperazin-1-yl)methyl)-3-(trifluoromethyl)phenyl)benzamide], the IC50 is 1.88 nM in series [1] (MTT or CCK8, nM); 92.9 nM in series [2] (MTT or CCK8, nM); 50 nM in series [3] (imatinib-resistant K562R). Also, the GI50 in series [4] (setting [6]) worked out at 15.7 nM. Besides, the “pharmacokinetics parameters” value in series [5] is given as “adequate pharmacokinetics parameters”.

With `Cc1ccc(C(=O)Nc2ccc(CN3CCN(C)CC3)c(C(F)(F)F)c2)cc1C#Cc1cnc2[nH]ncc2c1` [D824, 3-(2-(1H-pyrazolo[3,4-b]pyridin-5-yl)ethynyl)-4-methyl-N-(4-((4-methylpiperazin-1-yl)methyl)-3-(trifluoromethyl)phenyl)benzamide], the IC50 in series [1] (MTT or CCK8, nM) is 0.494 nM; in series [2] (MTT or CCK8, nM), > 100 nM; in series [3] (imatinib-resistant K562R) it was 14 nM. Besides, in series [4] (setting [7]), the GI50 came to 1.65 nM. Further, the “pharmacokinetics parameters” value in series [5] is “adequate pharmacokinetics parameters”.

Take `Cc1ccc(C(=O)Nc2cccc(C(F)(F)F)c2)cc1C#Cc1cnc2[nH]ncc2c1` [D821, 3-(2-(1H-pyrazolo[3,4-b]pyridin-5-yl)ethynyl)-4-methyl-N-(3-(trifluoromethyl)phenyl)benzamide]: the IC50 is 0.724 nM in series [1] (MTT or CCK8, nM); > 100 nM in series [2] (MTT or CCK8, nM); 58 nM in series [3] (imatinib-resistant K562R). Besides, the GI50 in series [4] (setting [6]) came to 19.5 nM.

For the compound `Cc1ncn(-c2cc(NC(=O)c3ccc(C)c(C#Cc4cnc5[nH]ncc5c4)c3)cc(C(F)(F)F)c2)n1` [D835, 3-(2-(1H-pyrazolo[3,4-b]pyridin-5-yl)ethynyl)-4-methyl-N-(3-(3-methyl-1H-1,2,4-triazol-1-yl)-5-(trifluoromethyl)phenyl)benzamide], the IC50 is 0.402 nM in series [1] (MTT or CCK8, nM); > 100 nM in series [2] (MTT or CCK8, nM); 26 nM in series [3] (imatinib-resistant K562R). Moreover, the GI50 in series [4] (setting [6]) was 8.58 nM.

Consider `Cc1ncn(-c2cc(NC(=O)c3ccc(C)c(C#Cc4cnc5[nH]ncc5c4)c3)cc(C(F)(F)F)c2)n1` [D835 hydrochloride salt, 3-(2-(1H-pyrazolo[3,4-b]pyridin-5-yl)ethynyl)-4-methyl-N-(3-(3-methyl-1H-1,2,4-triazol-1-yl)-5-(trifluoromethyl)phenyl)benzamide], for which, in series [5] (iv, 5 mg/kg, IV 5 mg/kg), the AUC(0-inf) (in general, total exposure, with the tail of the curve extrapolated) amounted to 8540 ng·h/mL; the half-life (usually the time in which the quantity being followed falls by half) is 1010 min; the highest concentration (Cmax) (commonly the maximum level reached in the sampled fluid or tissue) turned out to be 976 ng/mL; the Tmax (in general, the time from dosing to the highest level) is 0.033 h. Besides, in series [5] (po, 25 mg/kg, PO 25 mg/kg), the AUC(0-inf) is 3470 ng·h/mL, the half-life is 529 min, the highest concentration (Cmax) came out at 233 ng/mL and the time of peak concentration (Tmax) was found to be 4 h. For the same compound, the bioavailability – broadly, dose-corrected exposure relative to a reference, in per cent – in series [5] (setting [8]) was 8.1%.

Turning to `CNc1ncc(C#Cc2cc(C(=O)Nc3cc(-n4cnc(C)c4)cc(C(F)(F)F)c3)ccc2C)cn1` [D800 hydrochloride salt, 4-methyl-N-(3-(4-methyl-1H-imidazol-1-yl)-5-(trifluoromethyl)phenyl)-3-(2-(2-(methylamino)pyrimidin-5-yl)ethynyl)benzamide], the “BA(% Oral bioavailability)” value in series [5] (calculated according to AUC data, PO vs IV) is reported as 27.1%. Besides, in series [5] (iv, 25 mg/kg, IV 25 mg/kg), the total exposure AUC(0-inf) was determined as 48600 ng·h/mL, the half-life was 468 min, the Cmax is 3090 ng/mL and the time of peak concentration (Tmax) was 2 h. In series [5] (po, 5 mg/kg, PO 5 mg/kg), the area under the curve AUC(0-inf) amounted to 35800 ng·h/mL, the half-life was 450 min, the Cmax is 11000 ng/mL and the time of peak concentration (Tmax) worked out at 0.033 h.

`Cc1cn(-c2cc(NC(=O)c3ccc(C)c(C#Cc4cnc(NC[C@H](O)CO)nc4)c3)cc(C(F)(F)F)c2)cn1` [D834, 3-(2-(2-((S)-2,3-dihydroxypropylamino)pyrimidin-5-yl)ethynyl)-4-methyl-N-(3-(4-methyl-1H-imidazol-1-yl)-5-(trifluoromethyl)phenyl)benzamide]: the IC50 in series [1] (MTT or CCK8, nM) is 8.7 nM; in series [2] (MTT or CCK8, nM), > 100 nM; in series [3] (imatinib-resistant K562R) it was 190 nM. Also, the GI50 in series [4] (setting [6]) came to 215 nM.

In the case of `Cc1cn(-c2cc(NC(=O)c3ccc(C)c(C#Cc4ccc(N)nc4)c3)cc(C(F)(F)F)c2)cn1` [D827, 3-(2-(6-aminopyridin-3-yl)ethynyl)-4-methyl-N-(3-(4-methyl-1H-imidazol-1-yl)-5-(trifluoromethyl)phenyl)benzamide], the IC50 in series [1] (MTT or CCK8, nM) is 2.68 nM; in series [2] (MTT or CCK8, nM), 1850 nM; in series [3] (imatinib-resistant K562R), 59 nM. Moreover, the GI50 in series [4] (setting [6]) worked out at 29.8 nM.

Regarding `Cc1cn(-c2cc(NC(=O)c3ccc(C)c(C#Cc4cnc(NC5CCCCC5)nc4)c3)cc(C(F)(F)F)c2)cn1` [D828, 3-(2-(2-(cyclohexylamino)pyrimidin-5-yl)ethynyl)-4-methyl-N-(3-(4-methyl-1H-imidazol-1-yl)-5-(trifluoromethyl)phenyl)benzamide], the figures for the IC50 in series [1], in series [2] and in series [3] were 30.9 nM, > 100 nM and 3070 nM, respectively. The GI50 in series [4] (setting [7]) stood at 2480 nM.

With `CCNc1ncc(C#Cc2cc(C(=O)Nc3cc(-n4cnc(C)c4)cc(C(F)(F)F)c3)ccc2C)cn1` [D755 hydrochloride salt, 3-(2-(2-(ethylamino)pyrimidin-5-yl)ethynyl)-4-methyl-N-(3-(4-methyl-1H-imidazol-1-yl)-5-(trifluoromethyl)phenyl)benzamide], in series [5] (iv, 2.5 mg/kg, IV 2.5 mg/kg), the AUC(0-inf) stood at 3740 ng·h/mL, the half-life is 1570 min, the Cmax was determined as 510 ng/mL and the time to peak (Tmax) came to 0.033 h. Moreover, in series [5] (po, 25 mg/kg, PO 25 mg/kg), the AUC(0-inf) was 23700 ng·h/mL, the half-life is 498 min, the maximum concentration (Cmax) is 1260 ng/mL and the time to peak (Tmax) came out at 6.25 h. For the same compound, the bioavailability in series [5] (setting [8]) is 63.3%.

Values taken from patent publication US8846671B2, “Heterocyclic alkynyl benzene compounds and medical compositions and uses thereof” (Guangzhou Institute of Biomedicine and Health, Chinese …, priority 2010, dated 2014).
